Assays:
[1] = system: velvetleaf; assay: Test A pre-/postemergence herbicide test; assay type: in vivo, Abutilon theophrasti
Summary of the method: (§1)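 Visual injury scores on a 0–100 scale (100 = complete control) taken about ten days post-treatment in greenhouse against untreated controls; dash means no result. Treatments: preemergence soil spray and postemergence spray to runoff on one- to two-leaf plants 2 to 10 cm tall, surfactant-containing formulation.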

[2] = system: large crabgrass; assay: Test A pre-/postemergence herbicide test; assay type: in vivo, Digitaria sanguinalis
Summary of the method: as §1

[3] = system: pigweed; assay: Test B pre-/postemergence herbicide test; assay type: in vivo, Amaranthus retroflexus; details: for Plant response rating, Pigweed: preemergence; for Pigweed plant response rating: postemergence, visual rating, scale 0 (no effect) to 100 (complete control)
Summary of the method: (§2)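 Plants compared with untreated controls 13–15 days post-treatment and given a visual 0–100 injury score. Applications: preemergence to seeds; postemergence at 1- to 4-leaf (2–18 cm); paddy species flooded, 2-leaf stage. Vehicle non-phytotoxic, surfactant included.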

[4] = system: blackgrass; assay: Test B postemergence herbicide test; assay type: in vivo, Alopecurus myosuroides; details: postemergence, visual rating, scale 0 (no effect) to 100 (complete control)
Summary of the method: (§3)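 Plants grow to 1- to 4-leaf stage (2–18 cm) for postemergence spraying, or to 2-leaf stage for the paddy test. Formulated compound is applied. Greenhouse holding lasts 13–15 days. Response is scored visually relative to controls, 0 no effect to 100 complete control; a dash means no result.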

[5] = system: wild oat; assay: Test B postemergence herbicide test; assay type: in vivo, Avena fatua; details: postemergence, visual rating, scale 0 (no effect) to 100 (complete control)
Summary of the method: (§4)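 Visual ratings, 0 (no effect) to 100 (complete control), made versus controls after 13–15 d greenhouse. Paddy plants treated at 2-leaf stage; postemergence plants at 1- to 4-leaf stage, 2–18 cm tall.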

[6] = system: giant foxtail; assay: Test B pre-/postemergence herbicide test; assay type: in vivo, Setaria faberi; details: for Plant response rating, Foxtail, Giant: preemergence; for Foxtail, Giant plant response rating: postemergence, visual rating, scale 0 (no effect) to 100 (complete control)
Summary of the method: as §2

[7] = system: small flower umbrella sedge; assay: Test B flooded paddy test; assay type: in vivo, Cyperus difformis; details: 1000 g ai/ha, visual rating, scale 0 to 100 (0 no effect, 100 complete control), 13 to 15 days
Summary of the method: as §3

[8] = system: cocklebur; assay: Test B pre-/postemergence herbicide test; assay type: in vivo, Xanthium strumarium; details: for Plant response rating, Cocklebur: preemergence; for Cocklebur plant response rating: postemergence, visual rating, scale 0 (no effect) to 100 (complete control)
Summary of the method: (§5)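 Species tested were Echinochloa crus-galli, Ipomoea coccinea, Xanthium strumarium and Oryza sativa, treated both before emergence and at the 1- to 4-leaf stage; rice and barnyardgrass were also tested under flooding at 2 leaves. Greenhouse incubation lasted 13–15 days before visual 0–100 scoring.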

[9] = system: velvetleaf; assay: Test B pre-/postemergence herbicide test; assay type: in vivo, Abutilon theophrasti; details: for Plant response rating, Velvetleaf: preemergence; for Velvetleaf plant response rating: postemergence, visual rating, scale 0 (no effect) to 100 (complete control)
Summary of the method: as §2

[10] = system: barnyardgrass; assay: Test A pre-/postemergence herbicide test; assay type: in vivo, Echinochloa crus-galli
Summary of the method: as §1

[11] = system: giant foxtail; assay: Test A pre-/postemergence herbicide test; assay type: in vivo, Setaria faberi
Summary of the method: as §1

[12] = system: morningglory; assay: Test A pre-/postemergence herbicide test; assay type: in vivo, Ipomoea spp.
Summary of the method: as §1

[13] = system: barnyardgrass; assay: Test B pre-/postemergence herbicide test; assay type: in vivo, Echinochloa crus-galli; details: for Plant response rating, Barnyardgrass: preemergence; for Barnyardgrass plant response rating: postemergence, visual rating, scale 0 (no effect) to 100 (complete control)
Summary of the method: as §5

[14] = system: Surinam grass; assay: Test B pre-/postemergence herbicide test; assay type: in vivo, Urochloa decumbens; details: for Plant response rating, Surinam Grass: preemergence; for Surinam Grass plant response rating: postemergence, visual rating, scale 0 (no effect) to 100 (complete control)
Summary of the method: as §2

[15] = system: ducksalad; assay: Test B flooded paddy test; assay type: in vivo, Heteranthera limosa; details: 1000 g ai/ha, visual rating, scale 0 to 100 (0 no effect, 100 complete control), 13 to 15 days
Summary of the method: as §3

[16] = system: barnyardgrass; assay: Test B flooded paddy test; assay type: in vivo, Echinochloa crus-galli; details: 1000 g ai/ha, visual rating, scale 0 to 100 (0 no effect, 100 complete control), 13 to 15 days
Summary of the method: as §3

[17] = system: rice; assay: Test B flooded paddy test; assay type: in vivo, Oryza sativa; details: 1000 g ai/ha, visual rating, scale 0 to 100 (0 no effect, 100 complete control), 13 to 15 days
Summary of the method: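 Formulated test chemicals went onto postemergence plants measuring 2 to 18 cm, at one to four leaves. For the paddy assay, species had reached two leaves. Scoring took place 13–15 days later by eye, relative to untreated plants, using 0 for no effect up to 100 for full control.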

[18] = system: redroot pigweed; assay: Test A pre-/postemergence herbicide test; assay type: in vivo, Amaranthus retroflexus
Summary of the method: as §1

[19] = system: large crabgrass; assay: Test B pre-/postemergence herbicide test; assay type: in vivo, Digitaria sanguinalis; details: for Plant response rating, Crabgrass, Large: preemergence; for Crabgrass, Large plant response rating: postemergence, visual rating, scale 0 (no effect) to 100 (complete control)
Summary of the method: as §2

[20] = system: morningglory; assay: Test B pre-/postemergence herbicide test; assay type: in vivo, Ipomoea coccinea; details: for Plant response rating, Morningglory: preemergence; for Morningglory plant response rating: postemergence, visual rating, scale 0 (no effect) to 100 (complete control)
Summary of the method: as §5

[21] = system: rice; assay: Test B pre-/postemergence herbicide test; assay type: in vivo, Oryza sativa; details: preemergence, 125 g ai/ha; 0 to 100 scale, 0 is no effect, 100 is complete control
Summary of the method: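 Greenhouse pot assay with simultaneous preemergence (treated seed) and postemergence (2–18 cm seedlings) applications of surfactant-containing, non-phytotoxic solvent formulations. Response scored visually 13–15 days later on a 0–100 scale, 100 meaning complete control.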

[22] = system: lambsquarters; assay: Test B pre-/postemergence herbicide test; assay type: in vivo, Chenopodium album; details: for Plant response rating, Lambsquarters: preemergence; for Lambsquarters plant response rating: postemergence, visual rating, scale 0 (no effect) to 100 (complete control)
Summary of the method: as §2

[23] = system: wheat; assay: Test B postemergence herbicide test; assay type: in vivo, Triticum aestivum; design: key to Wheat plant response rating: 0 = no effect, 100 = complete control; details: postemergence, visual rating, scale 0 (no effect) to 100 (complete control)
Summary of the method: as §4

[24] = system: corn; assay: Test B pre-/postemergence herbicide test; assay type: in vivo, Zea mays; details: for Plant response rating, Corn: preemergence; for Corn plant response rating: postemergence, visual rating, scale 0 (no effect) to 100 (complete control)
Summary of the method: as §2

[25] = Postemergence, 500 g ai/ha, 0 to 100 scale, 0 no effect, 100 complete control
[26] = Postemergence, 2000 g ai/ha, 0 to 100 scale, 0 no effect, 100 complete control
[27] = Preemergence, 2000 g ai/ha, visual rating, 0 to 100 scale (0 no effect, 100 complete control)
[28] = preemergence, 500 g ai/ha, visual injury, 0 to 100 scale (0 no effect, 100 complete control)
[29] = Preemergence, 500 g ai/ha, visual rating, 0 to 100 scale (0 no effect, 100 complete control)
[30] = 500 g ai/ha, visual rating 0-100, 0 no effect, 100 complete control
[31] = 125 g ai/ha, 0 to 100 scale, 0 is no effect, 100 is complete control

Cn1nc(C(C)(C)C)cc1C(=O)Nc1cccc(C#N)c1 [Compound 121]
Velvetleaf plant response rating [1, 25]: 10 | Plant response rating, Velvetleaf [1, 26]: 15 | Velvetleaf plant response rating [1, 27]: 30 | Velvetleaf plant response rating [1, 28]: 10 | Crabgrass, Large plant response rating [2, 25]: 10 | Plant response rating, Crabgrass, Large [2, 26]: 10 | Crabgrass, Large plant response rating [2, 29]: 10 | Crabgrass, Large plant response rating [2, 27]: 75 | Plant response rating, Pigweed [3, 30]: 100 | Pigweed plant response rating ([3]; 125 g ai/ha): 30 | Pigweed plant response rating ([3]; 500 g ai/ha): 50 | Plant response rating, Pigweed [3, 31]: 80 | Blackgrass plant response rating ([4]; 125 g ai/ha): 0 | Blackgrass plant response rating ([4]; 500 g ai/ha): 0 | Oat, Wild plant response rating ([5]; 125 g ai/ha): 10 | Oat, Wild plant response rating ([5]; 500 g ai/ha): 30 | Plant response rating, Foxtail, Giant [6, 30]: 70 | Foxtail, Giant plant response rating ([6]; 125 g ai/ha): 0 | Foxtail, Giant plant response rating ([6]; 500 g ai/ha): 10 | Plant response rating, Foxtail, Giant [6, 31]: 0 | Sedge, Umbrella plant response rating [7]: 0 | Plant response rating, Cocklebur [8, 30]: 0 | Cocklebur plant response rating ([8]; 125 g ai/ha): 10 | Cocklebur plant response rating ([8]; 500 g ai/ha): 20 | Plant response rating, Cocklebur [8, 31]: 0 | Plant response rating, Velvetleaf [9, 30]: 20 | Velvetleaf plant response rating ([9]; 125 g ai/ha): 10 | Velvetleaf plant response rating ([9]; 500 g ai/ha): 20 | Plant response rating, Velvetleaf [9, 31]: 0 | Barnyardgrass plant response rating [10, 25]: 10 | Plant response rating, Barnyardgrass [10, 26]: 35 | Barnyardgrass plant response rating [10, 29]: 15 | Barnyardgrass plant response rating [10, 27]: 40 | Foxtail, Giant plant response rating [11, 25]: 15 | Plant response rating, Foxtail, Giant [11, 26]: 25 | Foxtail, Giant plant response rating [11, 29]: 25 | Foxtail, Giant plant response rating [11, 27]: 75 | Morningglory plant response rating [12, 25]: 20 | Plant response rating, Morningglory [12, 26]: 20 | Morningglory plant response rating [12, 29]: 5 | Morningglory plant response rating [12, 27]: 20 | Plant response rating, Barnyardgrass [13, 30]: 80 | Barnyardgrass plant response rating ([13]; 125 g ai/ha): 0 | Barnyardgrass plant response rating ([13]; 500 g ai/ha): 0 | Plant response rating, Barnyardgrass [13, 31]: 0 | Plant response rating, Surinam Grass [14, 30]: 20 | Surinam Grass plant response rating ([14]; 125 g ai/ha): 10 | Surinam Grass plant response rating ([14]; 500 g ai/ha): 30 | Plant response rating, Surinam Grass [14, 31]: 0 | Ducksalad plant response rating [15]: 0 | Barnyardgrass plant response rating [16]: 0 | Rice plant response rating [17]: 0 | Pigweed plant response rating [18, 25]: 90 | Plant response rating, Pigweed [18, 26]: 100 | Pigweed plant response rating [18, 27]: 100 | Pigweed plant response rating [18, 28]: 95 | Plant response rating, Crabgrass, Large [19, 30]: 50 | Crabgrass, Large plant response rating ([19]; 125 g ai/ha): 10 | Crabgrass, Large plant response rating ([19]; 500 g ai/ha): 10 | Plant response rating, Crabgrass, Large [19, 31]: 0 | Plant response rating, Morningglory [20, 30]: 20 | Morningglory plant response rating ([20]; 125 g ai/ha): 0 | Morningglory plant response rating ([20]; 500 g ai/ha): 0 | Plant response rating, Morningglory [20, 31]: 0 | Plant response rating, Rice [21]: 0 | Plant response rating, Lambsquarters [22, 30]: 100 | Lambsquarters plant response rating ([22]; 125 g ai/ha): 80 | Lambsquarters plant response rating ([22]; 500 g ai/ha): 80 | Plant response rating, Lambsquarters [22, 31]: 70 | Wheat plant response rating ([23]; 125 g ai/ha): 0 | Wheat plant response rating ([23]; 500 g ai/ha): 0 | Plant response rating, Corn [24, 30]: 0 | Corn plant response rating ([24]; 125 g ai/ha): 0 | Corn plant response rating ([24]; 500 g ai/ha): 10 | Plant response rating, Corn [24, 31]: 0

— patent publication US20060069132A1, “Azolecarboxamide herbicides” (priority 2004, published 2006)
